Reference: the supplement of paper PMC10307832

Assays:
Assay in all cases: relative viability (nuclei count vs DMSO), 5 days (fraction); higher = more cells survive
[1] = compound: NC(=O)[C@@H](CCC(F)(F)F)N(Cc1ccc(-c2ncon2)cc1F)S(=O)(=O)c1ccc(Cl)cc1 [Avagacestat] + Cc1nc(Nc2ncc(C(=O)Nc3c(C)cccc3Cl)s2)cc(N2CCN(CCO)CC2)n1 [Dasatinib] (partner 0.075 µM)
Outline: (§1)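 After 5 days of treatment, lung cancer cells in 1536-well plates were fixed and stained in a single step (final 0.05% Triton X-100, 1% formaldehyde, 1 ug/ml Hoechst) and their nuclei counted on 4× images. Treatment had been applied by pin tool the day after seeding as one drug alone or as a fixed anchor-drug dose with five library-drug doses (not always all listed) in √10 steps. Relative viability is the nuclei count of treated wells divided by that of vehicle wells, and values are medians of duplicate plates.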

[2] = compound: NC(=O)[C@@H](CCC(F)(F)F)N(Cc1ccc(-c2ncon2)cc1F)S(=O)(=O)c1ccc(Cl)cc1 [Avagacestat] + C[C@@H](Oc1cc(-c2cnn(C3CCNCC3)c2)cnc1N)c1c(Cl)ccc(F)c1Cl [Crizotinib] (partner 1 µM)
Outline: as §1

[3] = compound: NC(=O)[C@@H](CCC(F)(F)F)N(Cc1ccc(-c2ncon2)cc1F)S(=O)(=O)c1ccc(Cl)cc1 [Avagacestat] + CC1(C)CCC(c2ccc(Cl)cc2)=C(CN2CCN(c3ccc(C(=O)NS(=O)(=O)c4ccc(N[C@H](CCN5CCOCC5)CSc5ccccc5)c(S(=O)(=O)C(F)(F)F)c4)cc3)CC2)C1 [Navitoclax] (partner 0.5 µM)
Outline: as §1

[4] = compound: NC(=O)[C@@H](CCC(F)(F)F)N(Cc1ccc(-c2ncon2)cc1F)S(=O)(=O)c1ccc(Cl)cc1 [Avagacestat] + O=C(CCCCCCC(=O)Nc1ccccc1)NO [Vorinostat] (partner 1 µM)
Outline: as §1

| Cell Line | relative viability ([1]; first compound 0.08 µM) | relative viability ([1]; first compound 0.253 µM) | relative viability ([1]; first compound 0.8 µM) | relative viability ([1]; first compound 2.53 µM) | relative viability ([1]; first compound 8 µM) | relative viability ([2]; first compound 0.08 µM) | relative viability ([2]; first compound 0.253 µM) | relative viability ([2]; first compound 0.8 µM) | relative viability ([2]; first compound 2.53 µM) | relative viability ([2]; first compound 8 µM) | relative viability ([3]; first compound 0.08 µM) | relative viability ([3]; first compound 0.253 µM) | relative viability ([3]; first compound 0.8 µM) | relative viability ([3]; first compound 2.53 µM) | relative viability ([3]; first compound 8 µM) | relative viability ([4]; first compound 0.08 µM) | relative viability ([4]; first compound 0.253 µM) | relative viability ([4]; first compound 0.8 µM) | relative viability ([4]; first compound 2.53 µM) | relative viability ([4]; first compound 8 µM) |
| --- | --- | --- | --- | --- | --- | --- | --- | --- | --- | --- | --- | --- | --- | --- | --- | --- | --- | --- | --- | --- |
| NCI-H2170 | 0.622 | 0.535 | 0.647 | 0.48 | 0.52 | 1.27 | 1.59 | 1.2 | 1.38 | 0.976 | 0.745 | 0.594 | 0.621 | 0.417 | 0.548 | 1.35 | 0.995 | 0.821 | 0.876 | 0.617 |
| LCLC-97TM1 | 0.945 | 0.86 | 0.757 | 0.866 | 0.706 | 0.317 | 0.289 | 0.301 | 0.241 | 0.397 | 0.467 | 0.409 | 0.39 | 0.128 | 0.341 | 1.01 | 0.847 | 0.862 | 0.838 | 0.57 |
| NCI-H520 | 0.267 | 0.16 | 0.158 | 0.168 | 0.162 | 0.895 | 0.836 | 0.729 | 0.727 | 0.459 | 1.16 | 1.15 | 1.06 | 0.95 | 1.06 | 0.8 | 0.767 | 0.773 | 0.637 | 0.639 |
| UMC-11 | 0.633 | 0.598 | 0.647 | 0.541 | 0.473 | 0.632 | 0.664 | 0.749 | 0.582 | 0.585 | 0.324 | 0.316 | 0.321 | 0.286 | 0.299 | 0.388 | 0.396 | 0.398 | 0.396 | 0.412 |
| BEN | 0.382 | 0.325 | 0.389 | 0.37 | 0.326 | 0.835 | 1.12 | 0.835 | 0.607 | 0.809 | 0.0581 | 0.0757 | 0.141 | 0.061 | 0.0756 | 0.589 | 0.653 | 0.579 | 0.526 | 0.588 |
| COR-L23 | 0.507 | 0.471 | 0.781 | 0.457 | 0.359 | 0.678 | 0.642 | 0.552 | 0.643 | 0.441 | 1.57 | 1.31 | 1.04 | 1 | 0.814 | 0.474 | 0.457 | 0.484 | 0.366 | 0.332 |
| NCI-H1651 | 0.477 | 0.426 | 0.454 | 0.38 | 0.342 | 1 | 0.928 | 0.896 | 0.879 | 0.863 | 1.28 | 1.33 | 1.3 | 1.07 | 0.764 | 0.583 | 0.566 | 0.681 | 0.52 | 0.567 |
| SW 1573 | 0.515 | 0.593 | 0.523 | 0.565 | 0.279 | 0.844 | 0.905 | 0.777 | 0.816 | 0.709 | 1.3 | 0.97 | 0.989 | 1.04 | 0.974 | 0.933 | 0.672 | 1.05 | 0.624 | 0.672 |
